These results are taken from paper PMC10610134, “Verubulin (Azixa) Analogues with Increased Saturation: Synthesis, SAR and Encapsulation in Biocompatible Nanocontainers Based on Ca^2+ or Mg^2+ Cross-Linked Alginate” (Pharmaceuticals, 2023).

“Also recorded” adds a separate entry of the source. Where two headings read alike, the source gives them in different places.

One data set relates to A549. As to conditions: cited from earlier work.
The next data set has as its system HCT116 cell line. The data set can be described thus: MTT cytotoxicity towards HCT116. Format: cell-based, human. Conditions: HCT-116.
In data set [1] the test system is immortalized lung fibroblast cell line VA13 (WI38 subline 2RA). Description: MTT cytotoxicity assay, VA13. Format: cell-based. Conditions: Homo sapiens, read-out: IC50, nM VA13. The text has this:
(§1) The obtained series of verubulin analogues 2a–r (which also included three by-products isolated in the reactions according to Scheme 2) were initially evaluated for cytotoxicity against commonly used human breast cancer cell line MCF7′ (fast-growth subclone), human lung epithelial carcinoma cell line A549 and etiologically non-cancer immortalized lung fibroblast cell line VA13 (WI38 subline 2RA). Cytotoxicity against immortalized human embryonic kidney cell line HEK293T, characterized by a high growth rate, was also studied regarding cytotoxicity against non-cancerous fast-growth cells. A standard MTT assay was performed; verubulin (1) served as a positive reference. The data obtained are presented in Table 1 (for dose–response curves, see Supplementary Materials).
(§2) Human breast cancer cell line MCF7′ and human lung adenocarcinoma cell line A549 were kindly provided by Dr. S. Dmitriev (Lomonosov Moscow State University), immortalized human fibroblast cell line VA13 (WI38 subline 2RA) was kindly provided by Dr. M. Rubtsova (Lomonosov Moscow State University), human embryonic kidney HEK293T cell line was kindly provided by Dr. E. Knyazhanskaya (Lomonosov Moscow State University). MCF7′, VA13, A549 and HEK293T cell lines were maintained in DMEM/F-12 (Thermo Fisher Scientific, Waltham, MA, USA) culture medium containing 10% fetal bovine serum (Thermo Fisher Scientific, Waltham, MA, USA) and 50 μg/mL penicillin and 0.05 mg/mL streptomycin at 37 °C (Thermo Fisher Scientific, Waltham, MA, USA) in 5% CO2. Cells were maintained at 37 °C in a humidified MCO-18AC incubator (Sanyo, Tokyo, Japan) supplied with 5% CO2. Cell cultures were tested for the absence of mycoplasma and validated by STR.
(§3) The cytotoxicity of the substances was tested using the 3-(4,5-dimethylthiazol-2-yl)2,5-diphenyl tetrazolium bromide (MTT) assay with some modifications. A total of 2500 cells per well for the MCF7′, HEK293T, A549 cell lines or 4000 cells per well for the VA-13 cell line were plated out in 135 μL of DMEM-F12 media (Gibco, Thermo Fisher Scientific, Waltham, MA, USA) in a 96-well plate and incubated in the 5% CO2 incubator for the first 20 h without treatment. Then, 15.8 μL of media–DMSO solutions of tested substances (final DMSO concentrations in the media were 0.5% or less) was added to the cells (triplicate each) and cells were treated for 64 h with 0.023 mg/L–50 mg/L (eight dilutions) of compounds 2f,n,o,r; 1.14 μg/L–2.5 mg/L (eight dilutions) of compounds 2a,b,d,g,h,k,l,p,q; 57.2 ng/L–125 μg/L (eight dilutions) of compounds 2e,i,j; 22.9 ng/L–50 μg/L (eight dilutions) of compounds 1,2c,m. Doxorubicin was used as a control substance. Then, the MTT reagent (Paneco LLC, Moscow, Russia) was added to cells up to a final concentration of 0.5 g/L (10 × stock solution in PBS was used) and incubated for 2 h at 37 °C in the incubator, under an atmosphere of 5% CO2. Then, the MTT solution was discarded, and 140 μL of DMSO (PharmaMed LLC, Moscow, Russia) was added. The plates were swayed on a shaker (120 rpm) to dissolve the formazan. The absorbance was measured using a microplate reader (VICTOR X5 Light Plate Reader, PerkinElmer, Waltham, MA, USA) at a wavelength of 555 nm (in order to measure formazan concentration). The results were used to construct dose–response graphs and to estimate IC50 values (IC50 is the concentration resulting in half of the maximal cytotoxic effect) with GraphPad Prism V, GraphPadSoftware, Inc., San Diego, CA, USA.
(In general: Tetrazolium assays rely on reduction of a dye to a coloured formazan, in cell work by metabolically active cells.)

The test system of data set [2] is tubulin (Tb) and microtubule-associated proteins (MAPs) from mouse brains. Description: Tubulin + MAP polymerization assay. Format: biochemical. Conditions: GTP-dependent polymerization, read-out: IC50 of tubulin polymerization (initial rates, optical density at 355 nm).
In data set [3] the test system is human breast cancer cell line MCF7′. Description: MTT cytotoxicity assay, MCF7′. The class given is cell-based. Conditions: read-out: IC50, nM MCF7′.
Description: as §1, §2, §3

The test system of data set [4] is human lung epithelial carcinoma cell line A549. Description: MTT cytotoxicity assay, A549. Conditions: read-out: IC50, nM A549. Format: cell-based.
Description: as §1, §2, §3

Data set [5] concerns immortalized human embryonic kidney cell line HEK293T. Description: MTT cytotoxicity assay, HEK293T. As to conditions: HEK-293T, read-out: IC50, nM HEK293T. The class given is cell-based.
Description: as §1, §2, §3

For the next data set, the system named is HCT116 cells. The data set can be described thus: Apoptosis induction, Annexin V / 7-AAD flow cytometry. The class given is cell-based, human. Conditions: for Live (viable cells): human, 48 h. Here is the method:
Apoptosis is an important and active regulatory pathway of cell growth and proliferation. Annexin V is a calcium-dependent phospholipid-binding protein with a high affinity for phosphatidylserine (PS), a membrane component normally localized to the internal face of the cell membrane. Early in the apoptotic pathway, molecules of PS are translocated to the outer surface of the cell membrane where Annexin V can readily bind them.
After incubation, the cells were harvested by trypsinization, precipitated by centrifugation (3000 rpm), washed with cold PBS and recentrifuged. Aliquots of cells were processed as recommended in the Muse Annexin V& Dead Cell Kit (Luminex Corporation, Austin, TX, USA). The results were recorded on a Muse Cell Analyzer flow cytometer (Merck, Rahway, NJ, USA).

Data set [6] has as its system MCF7′, A549, VA13, HEK293T cell lines. Description: MTT cytotoxicity, SAR statements over the cell line panel. The class given is cell-based, human. Conditions: for selectivity towards tumor cells: pair A549/VA13.
Description: as §1, §3

For data set [7], the system named is microtubules in carcinoma A549 cells. Description: Immunofluorescent microscopy of microtubules. Format: cell-based, human. Conditions: 24 h, A549. Here is the method:
Since verubulin is known to stimulate microtubule disassociation, we performed an immunofluorescent microscopy study to determine the response of microtubule dynamics in carcinoma A549 cells to the treatment with representative compounds 2b,c,e. […] Aberrant cell morphology—contraction and rounding (Figure 2A,B) or contraction and elongation (Figure 2C)—was also observed.
A549 cells were seeded on coverslips (treated with poly-l-lysine at a concentration of 33 mg/L for an hour). Compounds were added up to the corresponding concentration after 24 h attachment and growth of the cells. Then, cells were incubated 24 h.
The cells were fixed with methanol (precooled in liquid nitrogen for 20 min), no additional permeabilization was performed. To prevent non-specific binding, cells were incubated with 4% BSA in PBS for one hour. Then, a solution of mouse monoclonal antibodies against alpha-tubulin cross-linked with Alexa 488 fluoroform (Thermo Fisher Scientific, Waltham, MA, USA, 32-2588) at a concentration of 5 μg/mL in 1% BSA solution in PBS was added to the cells, and the slides were incubated at +5 °C in a water chamber for 24 h. After the end of the incubation time, the cells were washed several times with PBS buffer solution and fixed on a glass slide with Moviol. Next day, cells were imaged with a ZEISS LSM 900 (ZEISS Microscopy, GmbH, Germany) and images processed with ImageJ.

In another data set the test system is MCF7/MCF10A. On the set-up: method as in PMID 36802449. As to conditions: cited from earlier work.
Setting [8] is: 2 × IC50, 48 h, HCT116, listed as verubulin (1).
The mark [9] stands for this setting: HCT116, human colon carcinoma, read-out: IC50.

On to `COc1ccc2c(c1)NC(=O)CN2c1nc(C)nc2c1CCC2` [Banerjee 2021], for which, in the data set on A549, the IC50 (commonly the concentration that inhibits the measured activity by half) was 4.5 nM.

`COc1ccc(N(C)c2nc(C)nc3ccccc23)cc1` [Compound 1, Verubulin]: the half-inhibitory concentration (IC50) in the data set on HCT116 cell line (Homo sapiens) was 3.2 ± 0.7 nM; in data set [1] (VA-13, 64 h) it was 0.84 ± 0.06 nM; in data set [2], 3100 ± 1100 nM; with A549, 5 nM; in data set [3] (MCF7, 64 h) it was 1.4 ± 0.05 nM; in data set [4] (A549, 64 h), 1.1 ± 0.05 nM. Besides, in data set [5] (64 h), the IC50 was 1 ± 0.02 nM. Further, in the data set on HCT116 cells (2 × IC50, 48 h, HCT116), the “apoptotic cells, early plus late” value is recorded as 49.3%. For the same molecule, in the data set on HCT116 cells (setting [8]), the “Early Apop. (Annexin V (+), 7-AAD (−))” value is listed as 16.3%. In the data set on HCT116 cells (setting [8]), the “Late Apop./Dead (Annexin V (+), 7-AAD (+))” value is on record as 33%. Besides, in data set [6], the “selectivity towards tumor cells” value is “no selectivity”.

Consider `Cc1nc2c(c(N(C)c3ccccc3)n1)CCCC2` [Compound 2a, N,2-Dimethyl-N-phenyl-5,6,7,8-tetrahydroquinazolin-4-amine], for which the melting point – broadly, the temperature, or range, at which the solid turns liquid – lay within 84 to 85 °C. Also, the IC50 in data set [1] (VA-13, 64 h treatment, MTT) stood at 1400 ± 180 nM. Further, the “effect on microtubules (MTs)” value in data set [7] (100 μM (very high concentration)) was “intact MTs; also recorded: no effect on the microtubule cytoskeleton”. The IC50 in data set [3] (MCF7, 64 h treatment, MTT) was found to be 1840 ± 810 nM. In [4] (A549, 64 h treatment, MTT), the half-inhibitory concentration (IC50) was 2200 ± 260 nM. The IC50 in data set [5] (64 h treatment, MTT) was determined as 1750 ± 230 nM. Further, the “reduction of cytotoxicity on removal of para-methoxy substituent” value in data set [6] (2a vs. 2c, 2g vs. 2i) is 2–3 orders of magnitude.

Turning to `COc1ccc2c(c1)CCCN2c1nc(C)nc2c1CCCC2` [Compound 2e, 4-(6-Methoxy-3,4-dihydroquinolin-1(2H)-yl)-2-methyl-5,6,7,8-tetrahydroquinazoline], the IC50 in the data set with HCT116 cell line (setting [9]) was determined as 22 ± 5 nM; in data set [1] (VA-13, 64 h treatment, MTT) it was 7.1 ± 2 nM; in data set [2] it was 26000 ± 6000 nM; in data set [3] (MCF7, 64 h treatment, MTT), 12.6 ± 2.1 nM; in [4] (A549, 64 h treatment, MTT) it was 13.5 ± 2.2 nM; in data set [5] (64 h treatment, MTT) it was 8.8 ± 2 nM. In addition, in data set [7] (10 μM), the “effect on microtubules (MTs)” value is listed as “full depolymerization of MTs”. For the same molecule, the effect on microtubules entry in [7] (5–10 μM) is recorded as “pronounced or complete disruption of microtubules”.

Regarding `COc1ccc(N(C)c2nc(N)nc3c2CCCC3)cc1` [Compound 2i, N^4-(4-Methoxyphenyl)-N^4-methyl-5,6,7,8-tetrahydroquinazolinyl-2,4-diamine], the half-inhibitory concentration (IC50) was found to be 40 ± 10 nM in the data set with HCT116 cell line (setting [9]); 6 ± 1.5 nM in data set [1] (VA-13, 64 h treatment, MTT); 10.2 ± 1.5 nM in data set [3] (MCF7, 64 h treatment, MTT); 15 ± 2 nM in data set [4] (A549, 64 h treatment, MTT); 9.6 ± 2.2 nM in [5] (64 h treatment, MTT). Besides, the “Early Apop. (Annexin V (+), 7-AAD (−))” value in the data set on HCT116 cells (2 × IC50, 48 h, HCT116) amounted to 46.3%. Besides, in the data set on HCT116 cells, the “Live (viable cells)” value amounted to 43.99%.

On to `COc1ccc2c(c1)CCCN2c1nc(N)nc2c1CCCC2` [Compound 2j, 2-Amino-4-(6-methoxy-3,4-dihydroquinolin-1(2H)-yl)-5,6,7,8-tetrahydroquinazoline], for which the IC50 in the data set on HCT116 cell line (setting [9]) was 160 ± 30 nM; in data set [1] (VA-13, 64 h treatment, MTT), 14.5 ± 3.9 nM; in data set [3] (MCF7, 64 h treatment, MTT) it was 40.2 ± 7.8 nM; in data set [4] (A549, 64 h treatment, MTT) it was 50.5 ± 11.1 nM; in data set [5] (64 h treatment, MTT), 28.9 ± 6.6 nM. The “Early Apop. (Annexin V (+), 7-AAD (−))” value in the data set on HCT116 cells (2 × IC50, 48 h, HCT116) came out at 56.4%. The “Live (viable cells)” value in the data set with HCT116 cells amounted to 30.81%.

Turning to `COc1ccc(N(C)c2nc(Cl)nc3c2CCCC3)cc1` [Compound 2m, 2-Chloro-N-(4-methoxyphenyl)-N-methyl-5,6,7,8-tetrahydroquinazolin-4-amine], the IC50 was 1.8 ± 0.1 nM with HCT116 cell line (setting [9]); 1.3 ± 0.18 nM in [1] (VA-13, 64 h treatment, MTT); 3.3 ± 0.14 nM in [3] (MCF7, 64 h treatment, MTT); 3 ± 0.2 nM in data set [4] (A549, 64 h treatment, MTT); 2.7 ± 0.12 nM in [5] (64 h treatment, MTT). The “selectivity in the pair MCF7/MCF10A” value with MCF7/MCF10A is on record as “selective”. Also, the “Live (viable cells)” value with HCT116 cells was found to be 52.58%. The “selectivity towards tumor cells” value in [6] is “no selectivity”.

`COc1ccc(N(C)c2nc(Cl)nc3c2CCCC3)cc1` [Tan 2023]: the IC50 in the data set on A549 is 4.7 nM.

On to `COc1ccc2c(c1)CCCN2c1nc(C)nc2ccccc12` [Wang 2013], for which the GI50 (commonly the concentration that inhibits growth by half) with A549 was 17.8 nM.
